Assay results from patent US20080247987A1, “Block Copolymer Compositions and Uses Thereof” (ANGIOTECH INTERNATIONAL AG, priority 2005, published 2008).
In brackets after ≈: the same amount, converted by molar mass. Read-outs that look alike come from different tables or passages of the source.

Legend:
[1] = cited from earlier work
prostate tumors = details: via inhibition of angiogenesis; cited from earlier work
angiogenesis = details: cited from earlier work
synoviocytes = details: cited from earlier work
neutrophil = details: cited from earlier work
[2] = test system: collagen induced arthritis; details: animal model; cited from earlier work
[3] = test system: carrageenin-induced arthritis; assay: Inflammatory carrageenin-induced arthritis model; assay type: in vivo; details: rabbits
physchem = details: organic solvent or mixture, thermodynamic from solid
Method: The phase separation of the PEG400-TMC/Gly(90/10)900 triblock copolymer from PEG 300 in the presence of water was evaluated to predict its behavior upon dilution in a largely aqueous physiological environment. […] The phase separation is expected to form a PEG 300-rich phase and a PEG400-TMC/Gly(90/10)900-rich phase, the former containing the highest proportion of water. […] Solubility in the PEG 300-rich phase was estimated from co-solvent studies of water/PEG 300 mixtures.

[4] = test system: human prostate cancer cell; details: in vitro; cited from earlier work
AP-1 = details: via reduced AP-1 binding to DNA; cited from earlier work
[5] = test system: advanced breast, ovarian and non-small cell lung cancer; details: in vivo; cited from earlier work
T-cell = details: cited from earlier work
[6] = test system: normal chondrocytes and non-proliferating synoviocytes; details: cited from earlier work
[7] = test system: arthritis after anterior cruciate ligament transection; assay: Surgical transection of the anterior cruciate ligament (mechanical arthritis model); assay type: in vivo, Hartley Guinea pigs; details: introduced into the joint
Source text: Hartley Guinea pigs subjected to surgical transaction of the anterior cruciate ligament represent a mechanical model for arthritis. Typically after the anterior cruciate is severed, the animals develop arthritis within several weeks.

prostate cancer [8] = details: in vitro; cited from earlier work
prostate cancer [9] = details: in vivo; cited from earlier work

In the case of `C[C@@H]1[C@H](O)[C@@H](C)/C=C/C=C/C=C/C=C/C=C/C=C/C=C/[C@H](O[C@@H]2O[C@H](C)[C@@H](O)[C@H](N)[C@@H]2O)C[C@@H]2O[C@](O)(C[C@@H](O)C[C@@H](O)[C@H](O)CC[C@@H](O)C[C@@H](O)CC(=O)O[C@H]1C)C[C@H](O)[C@H]2C(=O)O` [Amphotericin], the “solubility in water” value ([1]; pH 6 to 7) is given as “insoluble in water”.

In the case of `O=C1c2c(O)cccc2Cc2cccc(O)c21` [Anthralin], the “solubility in water” value [1] is given as “practically insoluble in water”.

For `CC[C@@]1(O)C(=O)OCc2c1cc1n(c2=O)Cc2cc3ccccc3nc2-1` [Camptothecin], the solubility in water [1] is listed as 0.001 to 0.002 mg/mL.

In the case of `COc1cc(/C=C/C(=O)CC(=O)/C=C/c2ccc(O)c(OC)c2)ccc1O` [Curcumin], the “solubility in water” value [1] is listed as “practically insoluble in water”.

In the case of `O=c1c(-c2ccc(O)cc2)coc2cc(O)cc(O)c12` [Genistein], the “solubility in water” value [1] is given as “practically insoluble in water”.

In the case of `COc1ccc2c(c1)c(CC(=O)O)c(C)n2C(=O)c1ccc(Cl)cc1` [Indomethacin], the “solubility in water” value [1] is listed as “practically insoluble in water”.

In the case of `CN(C(=O)c1c(O)c2ccccc2n(C)c1=O)c1ccccc1` [Linomide], the “antitumor and antimetastatic effects” value (prostate tumors) is given as “both antitumor and antimetastatic effects”.

For `CC(=O)O[C@H]1C(=O)[C@@]2(C)[C@H]([C@H](OC(=O)c3ccccc3)[C@]3(O)C[C@H](OC(=O)[C@H](O)[C@@H](NC(=O)c4ccccc4)c4ccccc4)C(C)=C1C3(C)C)[C@]1(OC(C)=O)CO[C@@H]1C[C@@H]2O` [Paclitaxel], the angiogenesis (angiogenesis) is listed as “potent inhibitory effect on angiogenesis”, the apoptosis in synoviocytes (synoviocytes) is listed as “induces apoptosis in synoviocytes” and the proliferation of synoviocytes (synoviocytes) is listed as “prevents the proliferation of”. For the same compound, the neutrophil activation (neutrophil) was “inhibits neutrophil activation”, the collagen induced arthritis [2] was “inhibits collagen induced arthritis” and the effect on cartilage [3] was “demonstrated cartilage”. The solubility (physchem) was 250 mg/mL (≈ 293 mM), the “prostate cancer cell growth” value [4] was “inhibit human prostate cancer cell growth in vitro” and the AP-1 transcription activity (AP-1) was “inhibits AP-1 transcription activity”. For the same compound, the “efficacy against advanced cancers” value [5] was “shown efficacy against advanced breast, ovarian and non-small cell lung cancer”, the T-cell function (T-cell) was “inhibits T-cell function” and the “T-cell response to stimuli” value (T-cell) was “decreases T-cell response to stimuli”. The “toxicity to non-proliferating cells” value [6] was “non-toxic to non-proliferating cells”, the “effect on arthritic process, cartilage and bone” value [7] was “greatly retarded the arthritic process and protected not only the cartilage, but also the underlying bone, from breakdown” and the solubility in water [1] was 0.001 to 0.002 mg/mL.

For `CC1=C(/C=C/C(C)=C/C=C/C(C)=C/C(=O)O)C(C)(C)CCC1` [Tretinoin], the “solubility in water” value [1] is given as “practically insoluble in water”.

For `C[C@]12CC[C@@H]3c4ccc(OC(=O)N(CCCl)CCCl)cc4CC[C@H]3[C@@H]1CC[C@@H]2O` [estramustine], the “efficacy against prostate cancer” value (prostate cancer [8]) is given as “some efficacy against prostate cancer” and the “efficacy against prostate cancer” value (prostate cancer [9]) is given as “some efficacy against prostate cancer”.

In the case of `CC[C@]1(O)C[C@@H]2CN(CCc3c([nH]c4ccccc34)[C@@](C(=O)OC)(c3cc4c(cc3OC)N(C)[C@H]3[C@@](O)(C(=O)OC)[C@H](OC(C)=O)[C@]5(CC)C=CCN6CC[C@]43[C@@H]65)C2)C1` [vinblastine], the “efficacy against prostate cancer” value (prostate cancer [8]) is listed as “some efficacy against prostate cancer” and the “efficacy against prostate cancer” value (prostate cancer [9]) is listed as “some efficacy against prostate cancer”.
